Experimental data published in US20010046509A1, “Use of cinnamic acid or of its derivatives in a cosmetic firming composition” (priority 1997, published 2001).

Test system: normal human dermal fibroblast cultures
Experiment: Effect on collagen synthesis: incorporation of radioactive proline into fibroblast cultures
Type: cell-based
Conditions: for tritiated proline incorporated, cpm (counts per minute): untreated cells 19261 cpm; for tritiated proline incorporation, % relative to untreated cells: untreated cells = 100
Experimental: The study is carried out by measuring the incorporation of radioactive proline into normal human dermal fibroblast cultures. The fibroblast cultures are prepared according to the standard methods of cell culturing, i.e. in MEM/M199 medium sold by the company Gibco, in the presence of sodium bicarbonate (1.87 mg/ml), L-glutamine (2 mM), penicillin (50 IU/ml) and 10% foetal calf serum (Gibco). The test is carried out on cell cultures at 80% confluence on 24-well plates. Cinnamic acid, at a concentration of 10^−4M is placed in contact with the cells for 48 hours. Labelling with tritiated proline (L-[2,3-^3H]-proline sold by Amersham, 33 μCi/ml) is carried out for 24 hours. The level of tritiated proline incorporated is measured at the end of the test by acidic precipitation of the proteins on filters and counting by liquid scintillation. The results are assessed relative to a control consisting of cells which have not been treated with cinnamic acid. A positive control (20 μg/ml of vitamin C), which is known to stimulate collagen synthesis, and a negative control (10^−6M retinoic acid), which is known to inhibit collagen synthesis, are introduced into the test by way of reference.

[1] = cinnamic acid 10^-4 M, 48 hours contact, 24 hours labelling
[2] = negative control, 10^-6 M retinoic acid
[3] = positive control, 20 μg/ml of vitamin C

SMILES: O=C(O)C=Cc1ccccc1 [Cinnamic acid]
- incorporation of proline into collagen (collagen neosynthesis), result in words (cinnamic acid 10^-4 M, 48 hours): significantly stimulates the incorporation of proline into collagen
- tritiated proline incorporated, cpm (counts per minute) [1]: 26209 cpm
- tritiated proline incorporation, % relative to untreated cells [1]: 136%

SMILES: CC1=C(/C=C/C(C)=C/C=C/C(C)=C/C(=O)O)C(C)(C)CCC1 [Retinoic acid, retinoic acid]
- tritiated proline incorporated, cpm (counts per minute) [2]: 13160 cpm
- tritiated proline incorporation, % relative to untreated cells [2]: 68%

SMILES: O=C1O[C@H]([C@@H](O)CO)C(O)=C1O [Vitamin C, vitamin C]
- tritiated proline incorporated, cpm (counts per minute) [3]: 40344 cpm
- tritiated proline incorporation, % relative to untreated cells [3]: 209%
